# Measured values from US10538555B2, “Macrocyclic inhibitors of the PD-1/PD-L1 and CD80(B7-1)/PD-L1 protein/protein interactions” (BRISTOL-MYERS SQUIBB COMPANY, priority 2014, dated 2020).
# Where a SMILES comes first, the peptide text is derived from it. Bridges are numbered along the chain shown (N, C = ends). [ ]: non-standard residue; d: D form. ξ: configuration not given here. Trp(1-CH2COOH) = N[C@@H](Cc1cn(CC(=O)O)c2ccccc12)C(=O)O; Phe(3,4,5-F3) = N[C@@H](Cc1cc(F)c(F)c(F)c1)C(=O)O; NMePhe(4-Me) = CN[C@@H](Cc1ccc(C)cc1)C(=O)O; Phe(4-F) = N[C@@H](Cc1ccc(F)cc1)C(=O)O; NMeY = CN[C@@H](Cc1ccc(O)cc1)C(=O)O; Hyp = O=C(O)[C@@H]1C[C@@H](O)CN1; NMeF = CN[C@@H](Cc1ccccc1)C(=O)O; NMeNle = CCCC[C@H](NC)C(=O)O; Pip = O=C(O)[C@@H]1CCCCN1; dPip = O=C(O)[C@H]1CCCCN1; hSer = N[C@@H](CCO)C(=O)O; NMeA = CN[C@@H](C)C(=O)O; Orn = NCCC[C@H](N)C(=O)O; Dab = NCC[C@H](N)C(=O)O; Dap = NC[C@H](N)C(=O)O; ξC = NC(CS)C(=O)O
# Biological target: T1, Human PD-L1/PD-1 (Homo sapiens, UniProt Q9NZQ7)
# T1 construct: TVMV protease cleavage site (C); made in house; host or cells: HEK293T cells
# T1 sequence (Q9NZQ7 with tags, fused parts or gaps): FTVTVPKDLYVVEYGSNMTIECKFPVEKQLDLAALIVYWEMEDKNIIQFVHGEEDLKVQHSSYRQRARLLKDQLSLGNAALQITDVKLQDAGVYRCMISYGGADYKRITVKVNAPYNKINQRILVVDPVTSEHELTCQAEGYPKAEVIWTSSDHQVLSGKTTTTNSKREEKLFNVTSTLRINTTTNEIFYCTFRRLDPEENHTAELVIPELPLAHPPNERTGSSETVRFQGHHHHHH
# Test: HTRF Human PD-L1/PD-1 binding assay (PD-1-Ig/PD-L1-His)
# Settings: PD-L1-His 10 nM, PD-1-Ig 20 nM; class symbol; read-out: HTRF Human PD-L1/PD-1 Binding Assay IC50 Range
# Method in brief: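 HTRF read-out (665/620 nm ratio) after 30 min equilibration with Eu-cryptate anti-Ig mAb (1 nM) and APC anti-His mAb (20 nM). Peptides preincubated 15 min with PD-L1-His (10 nM), then PD-1-Ig (20 nM) added for 15 min.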
row,Compound,IC50
1,CCCC[C@H]1C(=O)N2CCC[C@@H]2C(=O)N[C@@H](CC(=O)O)C(=O)N[C@@H](C(C)C)C(=O)N(C)[C@@H](Cc2ccc(C)cc2)C(=O)N[C@@H](CCCN)C(=O)N2CCC[C@@H]2C(=O)N[C@@H](Cc2c[nH]c3ccccc23)C(=O)N[C@@H](Cc2ccc(O)cc2)C(=O)N[C@@H](CC(C)C)C(=O)N[C@H](C(=O)NCC(N)=O)CSCC(=O)N[C@@H](Cc2ccc(F)cc2)C(=O)N(C)[C@@H](Cc2ccccc2)C(=O)N1C [Example 10112] ({CH2CO}-[Phe(4-F)][NMeF][NMeNle][dP]DV[NMePhe(4-Me)][Orn][dP]WYLCG-NH2; thioether N-13),100 to 990 nM
2,CCCC[C@H]1C(=O)N(C)[C@@H](CCCC)C(=O)N[C@@H](CC(C)C)C(=O)N[C@H](C(=O)NCC(N)=O)CSCC(=O)N[C@@H](Cc2ccc(O)cc2)C(=O)N2CCCC[C@H]2C(=O)N[C@@H](CC(=O)O)C(=O)N2CCC[C@H]2C(=O)N[C@@H](Cc2cnc[nH]2)C(=O)N[C@@H](CCC(N)=O)C(=O)N2C[C@H](O)C[C@H]2C(=O)N[C@@H](Cc2c[nH]c3ccccc23)C(=O)N[C@@H](CO)C(=O)N[C@@H](Cc2cn(CC(=O)O)c3ccccc23)C(=O)N1C [Example 1293] ({CH2CO}-Y[Pip]DPHQ[Hyp]WS[Trp(1-CH2COOH)][NMeNle][NMeNle]LCG-NH2; thioether N-14),10 to 99.9 nM
3,"CCCC[C@H]1C(=O)N2CCC[C@@H]2C(=O)N2CCCC[C@H]2C(=O)N[C@@H](C(C)C)C(=O)N(C)[C@@H](Cc2ccccc2)C(=O)N[C@@H](Cc2ccc(O)cc2)C(=O)N2CCCC[C@@H]2C(=O)N[C@@H](Cc2c[nH]c3ccccc23)C(=O)N[C@@H](Cc2ccc(O)cc2)C(=O)N[C@@H](CC(C)C)C(=O)N[C@H](C(=O)NCC(N)=O)CSCC(=O)N[C@@H](Cc2cc(F)c(F)c(F)c2)C(=O)N(C)[C@@H](Cc2ccccc2)C(=O)N1C [Example 3217] ({CH2CO}-[Phe(3,4,5-F3)][NMeF][NMeNle][dP][Pip]V[NMeF]Y[dPip]WYLCG-NH2; thioether N-13)",10 to 99.9 nM

# Results, then the compound that gave them:
row,IC50,Compound
1,1 to 9.9 nM,"CCCC[C@H]1C(=O)N2CCC[C@@H]2C(=O)N[C@@H](CC(=O)O)C(=O)N[C@@H](C(C)C)C(=O)N(C)[C@@H](Cc2ccccc2)C(=O)N[C@@H](CCC(=O)O)C(=O)N2CCCC[C@@H]2C(=O)N[C@@H](Cc2c[nH]c3ccccc23)C(=O)N[C@@H](Cc2ccc(O)cc2)C(=O)N[C@@H](CCN)C(=O)N[C@H](C(=O)NCC(N)=O)CSCC(=O)N[C@@H](Cc2cc(F)c(F)c(F)c2)C(=O)N(C)[C@@H](Cc2ccc(OC)cc2)C(=O)N1C [Example 10603] ({CH2CO}-[Phe(3,4,5-F3)][NMeY](Me)[NMeNle][dP]DV[NMeF]E[dPip]WY[Dab]CG-NH2; thioether N-13)"
2,1 to 9.9 nM,CCCC[C@H]1C(=O)N(C)[C@@H](CCCC)C(=O)N[C@@H](CCC(=O)O)C(=O)NC(C(=O)NCC(N)=O)CSCC(=O)N[C@@H](Cc2ccc(O)cc2)C(=O)N(C)[C@@H](C)C(=O)N[C@@H](CC(N)=O)C(=O)N2CCC[C@H]2C(=O)N[C@@H](CC(N)=O)C(=O)N[C@@H](CC(C)C)C(=O)N2C[C@H](O)C[C@H]2C(=O)N[C@@H](Cc2c[nH]c3ccccc23)C(=O)N[C@@H](CCO)C(=O)N[C@@H](Cc2c[nH]c3ccccc23)C(=O)N1C (stereo partly drawn) [Example 9185] ({CH2CO}-Y[NMeA]NPNL[Hyp]W[hSer]W[NMeNle][NMeNle]E[ξC]G-NH2; thioether N-14)
3,1 to 9.9 nM,CCCC[C@H]1C(=O)N(C)[C@@H](CCCC)C(=O)N[C@@H](CC(C)C)C(=O)N[C@H](C(=O)O)CSCC(=O)N[C@@H](Cc2ccc(O)cc2)C(=O)N(C)[C@@H](C)C(=O)N[C@@H](CC(N)=O)C(=O)N2CCC[C@H]2C(=O)N[C@@H](CN)C(=O)N[C@@H](CC(C)C)C(=O)N2C[C@H](O)C[C@H]2C(=O)N[C@@H](Cc2c[nH]c3ccccc23)C(=O)N[C@@H](CCCN)C(=O)N[C@@H](Cc2cn(CC(=O)O)c3ccccc23)C(=O)N1C [Example 5199] ({CH2CO}-Y[NMeA]NP[Dap]L[Hyp]W[Orn][Trp(1-CH2COOH)][NMeNle][NMeNle]LC-OH; thioether N-14)
